Values of other authors, collected in patent publication US20090022779A1, “Phenytoin Formulations, and Uses Thereof in Wound Healing” (Royal College of Surgeons in Ireland, priority 2004, published 2009).

Settings: background statement

| SMILES | solubility in water |
| --- | --- |
| O=C1N=C([O-])NC1(c1ccccc1)c1ccccc1.[Na+] [Phenyloin sodium salt] | soluble |
| O=C1NC(=O)C(c2ccccc2)(c2ccccc2)N1 [Phenyloin, 5,5-diphenylimidazolidine-2,4-dione] | only slightly soluble |
